Data as given in patent US7265120B2, “Pyrazine derivatives and pharmaceutical use thereof” (Astellas Pharma Inc., priority 2004, dated 2007).

Work on `Cn1nc(-c2nc(NC3CCN(Cc4ccccc4)C3)c(N)nc2-c2ccccc2)ccc1=O` (stereo not drawn) [Example 128, 6-{5-amino-6-[(1-benzyl-3-pyrrolidinyl)amino]-3-phenyl-2-pyrazinyl}-2-methyl-3(2H)-pyridazinone] yielded a melting point of 183 to 185 °C.
For `Cn1nc(-c2nc(NC3CCN(Cc4ccccc4)CC3)c(N)nc2-c2ccccc2)ccc1=O` [Example 129, 6-{5-amino-6-[(1-benzyl-4-piperidinyl)amino]-3-phenyl-2-pyrazinyl}-2-methyl-3(2H)-pyridazinone], the melting point was 191 to 194 °C.
In the case of `Cn1nc(-c2nc(N3CCN(c4ccccc4)CC3)c(N)nc2-c2ccccc2)ccc1=O` [Example 130, 6-[5-amino-3-phenyl-6-(4-phenyl-1-piperazinyl)-2-pyrazinyl]-2-methyl-3(2H)-pyridazinone], the melting point is reported as 155 to 157 °C.
For `Cn1nc(-c2nc(N3CCN4CCCC4C3)c(N)nc2-c2ccccc2)ccc1=O` (stereo not drawn) [Example 131, 6-[5-amino-6-(hexahydropyrrolo[1,2-a]pyrazin-2(1H)-yl)-3-phenyl-2-pyrazinyl]-2-methyl-3(2H)-pyridazinone], the melting point was 177 to 179 °C.
`CC(C)n1nc(-c2nc(NCCN(C)C)c(N)nc2-c2ccccc2)ccc1=O` [Example 132, 6-(5-amino-6-{[2-(dimethylamino)ethyl]amino}-3-phenyl-2-pyrazinyl)-2-isopropyl-3(2H)-pyridazinone] gave a melting point of 188 to 189 °C.
For `CC(=O)NCCNc1nc(-c2ccc(=O)n(C(C)C)n2)c(-c2ccccc2)nc1N` [Example 133, N-(2-{[3-amino-6-(1-isopropyl-6-oxo-1,6-dihydro-3-pyridazinyl)-5-phenyl-2-pyrazinyl]amino}ethyl)acetamide], the melting point was 147 to 149 °C.
`CC(C)n1nc(-c2nc(NCCc3ccccc3)c(N)nc2-c2ccccc2)ccc1=O` [Example 135, 6-{5-amino-3-phenyl-6-[(2-phenylethyl)amino]-2-pyrazinyl}-2-isopropyl-3(2H)-pyridazinone] gave a melting point of 204.5 to 207 °C.
With `CC(C)n1nc(-c2nc(NCCCc3ccccc3)c(N)nc2-c2ccccc2)ccc1=O` [Example 136, 6-{5-amino-3-phenyl-6-[(3-phenylpropyl)amino]-2-pyrazinyl}-2-isopropyl-3(2H)-pyridazinone] the melting point was 185.5 to 187 °C.
Work on `CC(C)n1nc(-c2nc(NC3CCCCC3)c(N)nc2-c2ccccc2)ccc1=O` [Example 137, 6-[5-amino-6-(cyclohexylamino)-3-phenyl-2-pyrazinyl]-2-isopropyl-3(2H)-pyridazinone] yielded a melting point of 227 to 228.5 °C.
`CC(C)n1nc(-c2nc(NC3CCN(Cc4ccccc4)C3)c(N)nc2-c2ccccc2)ccc1=O` (stereo not drawn) [Example 138, 6-{5-amino-6-[(1-benzyl-3-pyrrolidinyl)amino]-3-phenyl-2-pyrazinyl)-2-isopropyl-3(2H)-pyridazinone] gave a melting point of 86 to 91 °C.
Work on `CC(C)n1nc(-c2nc(Nc3ccccc3)c(N)nc2-c2ccccc2)ccc1=O` [Example 139, 6-(5-amino-6-anilino-3-phenyl-2-pyrazinyl)-2-isopropyl-3(2H)-pyridazinone] yielded a melting point greater than 250 °C.
Work on `CC(C)n1nc(-c2nc(N3CCOCC3)c(N)nc2-c2ccccc2)ccc1=O` [Example 140, 6-[5-amino-6-(4-morpholinyl)-3-phenyl-2-pyrazinyl]-2-isopropyl-3(2H)-pyridazinone] yielded a melting point of 212 to 214.5 °C.
With `CC(C)n1nc(-c2nc(N3CCCC3)c(N)nc2-c2ccccc2)ccc1=O` [Example 141, 6-[5-amino-3-phenyl-6-(1-pyrrolidinyl)-2-pyrazinyl]-2-isopropyl-3(2H)-pyridazinone] the melting point was 192 to 194.5 °C.
`CC(C)n1nc(-c2nc(N3CCN(c4ccccn4)CC3)c(N)nc2-c2ccccc2)ccc1=O` [Example 142, 6-{5-amino-3-phenyl-6-[4-(2-pyridyl)-1-piperazinyl]-2-pyrazinyl}-2-isopropyl-3(2H)-pyridazinone] showed a melting point of 163 to 165 °C.
With `Cn1nc(-c2nc(N(CCO)Cc3ccccc3)c(N)nc2-c2ccccc2)ccc1=O` [Example 143, 6-{5-amino-6-[benzyl(2-hydroxyethyl)amino]-3-phenyl-2-pyrazinyl}-2-methyl-3(2H)-pyridazinone] the melting point was 210 to 212 °C.
For `Cn1nc(-c2nc(NCc3ccccc3)c(N)nc2-c2ccccc2)ccc1=O` [Example 144, 6-[5-amino-6-(benzylamino)-3-phenyl-2-pyrazinyl]-2-methyl-3(2H)-pyridazinone], the melting point was greater than 250 °C.
With `CN(C)c1nc(-c2ccc(=O)n(C)n2)c(-c2ccccc2)nc1N` [Example 144, 6-[5-amino-6-(dimethylamino)-3-phenyl-2-pyrazinyl]-2-methyl-3(2H)-pyridazinone] the melting point was 150 to 152 °C.
With `COc1ccc(CNc2nc(-c3ccc(=O)n(C)n3)c(-c3ccccc3)nc2N)cc1` [Example 145, 6-[5-amino-6-[(4-methoxybenzyl)amino]-3-phenyl-2-pyrazinyl}-2-methyl-3(2H)-pyridazinone] the melting point was greater than 250 °C.
For `Cn1nc(-c2nc(NCc3ccccn3)c(N)nc2-c2ccccc2)ccc1=O` [Example 146, 6-{5-amino-3-phenyl-6-[(2-pyridylmethyl)amino]-2-pyrazinyl}-2-methyl-3(2H)-pyridazinone], the melting point was greater than 250 °C.
Work on `CC(C)n1nc(-c2nc(-n3cccc3)c(N)nc2-c2ccccc2)ccc1=O` [Example 147, 6-[5-amino-3-phenyl-6-(1H-pyrrol-1-yl)-2-pyrazinyl]-2-isopropyl-3(2H)-pyridazinone] yielded a melting point of 132 to 136 °C.
`Cn1nc(-c2nc(-n3cccc3)c(N)nc2-c2ccccc2)ccc1=O` [Example 148, 6-[5-amino-3-phenyl-6-(1H-pyrrol-1-yl)-2-pyrazinyl]-2-methyl-3(2H)-pyridazinone] showed a melting point of 202 to 205 °C.
For `CC(C)n1nc(-c2nc(-n3cccn3)c(N)nc2-c2ccccc2)ccc1=O` [Example 149, 6-[5-amino-3-phenyl-6-(1H-pyrazol-1-yl)-2-pyrazinyl]-2-isopropyl-3(2H)-pyridazinone], the melting point was 210 to 212 °C.
In the case of `CC(C)n1nc(-c2nc(-n3ccnc3)c(N)nc2-c2ccccc2)ccc1=O` [Example 150, 6-[5-amino-6-(1H-imidazol-1-yl)-3-phenyl-2-pyrazinyl]-2-isopropyl-3(2H)-pyridazinone], the melting point is reported as greater than 250 °C.
Molecule `CC(C)n1nc(-c2nc(-n3cncn3)c(N)nc2-c2ccccc2)ccc1=O` [Example 151, 6-[5-amino-3-phenyl-6-(1H-1,2,4-triazol-1-yl)-2-pyrazinyl]-2-isopropyl-3(2H)-pyridazinone] has a melting point of 240 to 241.5 °C.
Work on `CC(C)n1nc(-c2nc(-n3cnc4ccccc43)c(N)nc2-c2ccccc2)ccc1=O` [Example 152, 6-[5-amino-6-(1H-benzimidazol-1-yl)-3-phenyl-2-pyrazinyl]-2-isopropyl-3(2H)-pyridazinone] yielded a melting point greater than 250 °C.
In the case of `Cn1nc(-c2nc(-n3ccnc3)c(N)nc2-c2ccccc2)ccc1=O` [Example 154, 6-[5-amino-6-(1H-imidazol-1-yl)-3-phenyl-2-pyrazinyl]-2-methyl-3(2H)-pyridazinone], the melting point is reported as greater than 250 °C.
`Cn1nc(-c2nc(-n3cncn3)c(N)nc2-c2ccccc2)ccc1=O` [Example 155, 6-[5-amino-3-phenyl-6-(1H-1,2,4-triazol-1-yl)-2-pyrazinyl]-2-methyl-3(2H)-pyridazinone] gave a melting point greater than 250 °C.
Work on `Cn1nc(-c2nc(-n3cnc4ccccc43)c(N)nc2-c2ccccc2)ccc1=O` [Example 156, 6-[5-amino-6-(1H-benzimidazol-1-yl)-3-phenyl-2-pyrazinyl]-2-methyl-3(2H)-pyridazinone] yielded a melting point greater than 250 °C.
Work on `COc1nc(-c2ccc(=O)n(C(C)C)n2)c(-c2ccccc2)nc1N` [Example 157, 6-(5-amino-6-methoxy-3-phenyl-2-pyrazinyl)-2-isopropyl-3(2H)-pyridazinone] yielded a melting point of 211 to 214 °C.
In the case of `CC(C)n1nc(-c2nc(Oc3ccc(F)cc3)c(N)nc2-c2ccccc2)ccc1=O` [Example 158, 6-[5-amino-6-(4-fluorophenoxy)-3-phenyl-2-pyrazinyl]-2-isopropyl-3(2H)-pyridazinone], the melting point is reported as 173 to 175 °C.
`CC(C)n1nc(-c2nc(Sc3ccc(F)cc3)c(N)nc2-c2ccccc2)ccc1=O` [Example 159, 6-{5-amino-6-[(4-fluorophenyl)thio]-3-phenyl-2-pyrazinyl}-2-isopropyl-3(2H)-pyridazinone] showed a melting point of 148 to 150 °C.
`CC(C)Oc1nc(-c2ccc(=O)n(C(C)C)n2)c(-c2ccccc2)nc1N` [Example 160, 6-(5-amino-6-isopropoxy-3-phenyl-2-pyrazinyl)-2-isopropyl-3(2H)-pyridazinone] gave a melting point of 198 to 200 °C.
For `CC(C)n1nc(-c2nc(OC3CCCCC3)c(N)nc2-c2ccccc2)ccc1=O` [Example 161, 6-[5-amino-6-(cyclohexyloxy)-3-phenyl-2-pyrazinyl]-2-isopropyl-3(2H)-pyridazinone], the melting point was 161 to 163 °C.
`CC(C)n1nc(-c2nc(OCc3ccccc3)c(N)nc2-c2ccccc2)ccc1=O` [Example 162, 6-[5-amino-6-(benzyloxy)-3-phenyl-2-pyrazinyl]-2-isopropyl-3(2H)-pyridazinone] gave a melting point of 118 to 120 °C.
`CC(C)n1nc(-c2nc(OCc3ccco3)c(N)nc2-c2ccccc2)ccc1=O` [Example 164, 6-[5-amino-6-(2-furylmethoxy)-3-phenyl-2-pyrazinyl]-2-isopropyl-3(2H)-pyridazinone] gave a melting point of 172 to 174 °C.
`CCCCOc1nc(-c2ccc(=O)n(C(C)C)n2)c(-c2ccccc2)nc1N` [Example 165, 6-(5-amino-6-butoxy-3-phenyl-2-pyrazinyl)-2-isopropyl-3(2H)-pyridazinone] gave a melting point of 130 to 131.5 °C.
`COCCOc1nc(-c2ccc(=O)n(C(C)C)n2)c(-c2ccccc2)nc1N` [Example 166, 6-[5-amino-6-(2-methoxyethoxy)-3-phenyl-2-pyrazinyl]-2-isopropyl-3(2H)-pyridazinone] showed a melting point of 128 to 130 °C.
For `CC(C)n1nc(-c2nc(OCCOC(C)(C)C)c(N)nc2-c2ccccc2)ccc1=O` [Example 167, 6-[5-amino-6-(2-tert-butoxyethoxy)-3-phenyl-2-pyrazinyl]-2-isopropyl-3(2H)-pyridazinone], the melting point was 163 to 165 °C.
Molecule `CC(C)n1nc(-c2nc(OCCOCc3ccccc3)c(N)nc2-c2ccccc2)ccc1=O` [Example 168, 6-{5-amino-6-[2-(benzyloxy)ethoxy]-3-phenyl-2-pyrazinyl}-2-isopropyl-3(2H)-pyridazinone] has a melting point of 120 to 122 °C.
